In a compilation of properties of binary mixtures (doi:10.1016/j.jtice.2024.105468):

Assay: xn = mol fraction of the nth substance listed
Details: 100 kPa

COCCO + CCCC[n+]1ccn(C)c1.[Br-]
viscosity (298.15 K, x2 = 0): 1.57 mPa·s
viscosity (303.15 K, x2 = 0): 1.5 mPa·s
viscosity (308.15 K, x2 = 0): 1.35 mPa·s
viscosity (313.15 K, x2 = 0): 1.23 mPa·s

CCCC[n+]1ccn(C)c1.[Br-] + COCCO
viscosity (298.15 K, x1 = 0.1002): 10 mPa·s
viscosity (298.15 K, x1 = 0.1999): 34 mPa·s
viscosity (298.15 K, x1 = 0.3002): 74.5 mPa·s
viscosity (298.15 K, x1 = 0.4): 124 mPa·s
viscosity (298.15 K, x1 = 0.5): 179 mPa·s
viscosity (298.15 K, x1 = 0.5999): 247 mPa·s
viscosity (298.15 K, x1 = 0.8): 527 mPa·s
viscosity (298.15 K, x1 = 0.8975): 843 mPa·s
viscosity (298.15 K, x1 = 1): 1451 mPa·s
viscosity (303.15 K, x1 = 0.1002): 6.65 mPa·s
viscosity (303.15 K, x1 = 0.1999): 19.6 mPa·s
viscosity (303.15 K, x1 = 0.3002): 41.1 mPa·s
viscosity (303.15 K, x1 = 0.4): 68.9 mPa·s
viscosity (303.15 K, x1 = 0.5999): 139 mPa·s
viscosity (303.15 K, x1 = 0.7002): 192 mPa·s
viscosity (303.15 K, x1 = 0.8): 280 mPa·s
viscosity (303.15 K, x1 = 0.8975): 447 mPa·s
viscosity (303.15 K, x1 = 1): 837 mPa·s
viscosity (308.15 K, x1 = 0.1002): 5.03 mPa·s
viscosity (308.15 K, x1 = 0.1999): 13 mPa·s
viscosity (308.15 K, x1 = 0.3002): 26.9 mPa·s
viscosity (308.15 K, x1 = 0.5): 63.6 mPa·s
viscosity (308.15 K, x1 = 0.5999): 86.3 mPa·s
viscosity (308.15 K, x1 = 0.7002): 114 mPa·s
viscosity (308.15 K, x1 = 0.8): 162 mPa·s
viscosity (308.15 K, x1 = 0.8975): 256 mPa·s
viscosity (308.15 K, x1 = 1): 506 mPa·s
viscosity (313.15 K, x1 = 0.1002): 3.71 mPa·s
viscosity (313.15 K, x1 = 0.1999): 8.79 mPa·s
viscosity (313.15 K, x1 = 0.3002): 17.5 mPa·s
viscosity (313.15 K, x1 = 0.5999): 55.5 mPa·s
viscosity (313.15 K, x1 = 0.8): 106 mPa·s
viscosity (313.15 K, x1 = 0.8975): 167 mPa·s
viscosity (313.15 K, x1 = 1): 330 mPa·s
